Reference: patent US10383848B2, “Indole-based therapeutics” (Creighton University, priority 2016, dated 2019)
≈ marks a conversion by molar mass, not a printed value.

Experiments:
Format in all cases: cell-based
M. intracellulare 1956 = experiment: MIC, resazurin microtiter assay; conditions: Mueller Hinton II; read-out: MIC M. avium Intracellulare 1956
M. xenopi WT = experiment: MIC, resazurin microtiter assay; conditions: Mycobacterium xenopi, Mueller Hinton II; read-out: MIC M. xenopi WT
M. avium 104 = experiment: MIC, resazurin microtiter assay; conditions: Mycobacterium avium, 104; Mueller Hinton II; read-out: MIC M. avium 104
[1] = system: M. massiliense CIP 108297; experiment: MIC, resazurin microtiter assay; conditions: for MIC: Mycobacteroides abscessus, CIP108297, Mueller Hinton II, read-out: MIC M. massiliense CIP 108297
M. abscessus ATCC 19977 = experiment: MIC, resazurin microtiter assay; conditions: Mueller Hinton II; for MIC: Mycobacteroides abscessus, ATCC19977, read-out: MIC M. abscessus ATCC 19977
M. abscessus DCI #21 = experiment: MIC, resazurin microtiter assay; conditions: Mueller Hinton II; for MIC: Mycobacteroides abscessus, read-out: MIC M. abscessus DCI #21
M. smegmatis mc^2155 = experiment: MIC, resazurin microtiter assay; conditions: for MIC: Mycolicibacterium smegmatis, MC^2155, 7H9-ADC-0.05% Tween 80, read-out: MIC M. smeg. mc^2155
M. massiliense CRM 0019 = experiment: MIC, resazurin microtiter assay; conditions: for MIC: Mycobacteroides abscessus, CRM0019, Mueller Hinton II, read-out: MIC M. massiliense CRM 0019
M. chelonae ATCC 35752 = experiment: MIC, resazurin microtiter assay; conditions: for MIC: Mycobacteroides chelonae, ATCC35752, Mueller Hinton II, read-out: MIC M. chelonae ATCC 35752
M. bolletii ATCC 14472 = experiment: MIC, resazurin microtiter assay; conditions: for MIC: Mycobacteroides abscessus, ATCC14472, Mueller Hinton II, read-out: MIC M. bolletii ATCC 14472
[2] = system: M. tuberculosis H37Rv mc^26206; experiment: microbe, parasite or virus in culture; conditions: for MIC: Mycobacterium tuberculosis, H37RV, read-out: MIC M. tb H37 Rv (mc2-6206)

SMILES | MIC (M. intracellulare 1956) | MIC (M. xenopi WT) | MIC (M. avium 104) | MIC [1] | MIC (M. abscessus ATCC 19977) | MIC (M. abscessus DCI #21) | MIC (M. smegmatis mc^2155) | MIC (M. massiliense CRM 0019) | MIC (M. chelonae ATCC 35752) | MIC (M. bolletii ATCC 14472) | MIC [2] | MIC M. massiliense CIP 108297 ([1]; Mueller Hinton II) | MIC M. abscessus ATCC 19977 (M. abscessus ATCC 19977) | MIC M. abscessus DCI #21 (M. abscessus DCI #21) | MIC M. smeg. mc^2155 (M. smegmatis mc^2155; 7H9-ADC-0.05% Tween 80) | MIC M. massiliense CRM 0019 (M. massiliense CRM 0019; Mueller Hinton II) | MIC M. chelonae ATCC 35752 (M. chelonae ATCC 35752; Mueller Hinton II) | MIC M. bolletii ATCC 14472 (M. bolletii ATCC 14472; Mueller Hinton II) | MIC M. tb H37 Rv (mc2-6206) [2]
Cc1cc(C)c2cc(C(=O)NCC34CC5CC(CC(C5)C3)C4)[nH]c2c1 [Compound 23, N-(1-(1-adamantyl)methyl)-4,6-dimethyl-1H-indole-2-carboxamide] | > 32 µg/mL | 1 µg/mL (≈ 2.97 µM) | > 32 µg/mL | > 32 µg/mL | > 32 µg/mL | > 32 µg/mL | > 20 µg/mL | > 32 µg/mL | > 32 µg/mL | > 32 µg/mL |  |  |  |  |  |  |  |  | 
Cc1cc(C)c2cc(C(=O)NCc3cccc(Cl)c3)[nH]c2c1 [Compound 34, N-(3-chlorobenzyl)-4,6-dimethyl-1H-indole-2-carboxamide] |  |  |  | > 32 µg/mL | > 32 µg/mL | > 32 µg/mL | > 20 µg/mL | > 32 µg/mL | > 32 µg/mL | > 32 µg/mL | > 5 µg/mL |  |  |  |  |  |  |  | 
O=C(NCC12CC3CC(CC(C3)C1)C2)c1cc2ccccc2[nH]1 [Compound 8, N-(1-(1-adamantyl)methyl)-1H-indole-2-carboxamide] | > 32 µg/mL | 4 µg/mL (≈ 13 µM) | > 32 µg/mL | 2 µg/mL (≈ 6.48 µM) | 2 µg/mL (≈ 6.48 µM) | 2 µg/mL (≈ 6.48 µM) | > 20 µg/mL | > 32 µg/mL | 1 µg/mL (≈ 3.24 µM) | 2 µg/mL (≈ 6.48 µM) | > 5 µg/mL |  |  |  |  |  |  |  | 
Cc1cc(C)c2cc(C(=O)NC3CCCC3)[nH]c2c1 [Compound 28, N-cyclopentyl-4,6-dimethyl-1H-indole-2-carboxamide] | > 32 µg/mL | 8 to 16 µg/mL (≈ 31.2 to 62.4 µM) | > 32 µg/mL | 8 µg/mL (≈ 31.2 µM) | 4 µg/mL (≈ 15.6 µM) | 4 µg/mL (≈ 15.6 µM) | 5 µg/mL (≈ 19.5 µM) | 8 µg/mL (≈ 31.2 µM) | 2 µg/mL (≈ 7.8 µM) | 2 µg/mL (≈ 7.8 µM) | 2.5 µg/mL (≈ 9.75 µM) |  |  |  |  |  |  |  | 
CC1CCC(NC(=O)c2cc3ccccc3[nH]2)CC1 (centres unmarked) [Compound 15] | > 32 µg/mL | 16 µg/mL (≈ 62.4 µM) | > 32 µg/mL |  |  |  |  |  |  |  |  | 16 µg/mL (≈ 62.4 µM) | >32 µg/mL | >32 µg/mL | 12.5 µg/mL (≈ 48.8 µM) | 16 µg/mL (≈ 62.4 µM) | 16 µg/mL (≈ 62.4 µM) | 16 µg/mL (≈ 62.4 µM) | 5 µg/mL (≈ 19.5 µM)
Cc1cc(C)c2cc(C(=O)NC(C)C34CC5CC(CC(C5)C3)C4)[nH]c2c1 (centres unmarked) [Compound 22, N-(1-(1-adamantyl)ethyl)-4,6-dimethyl-1H-indole-2-carboxamide] | > 32 µg/mL | > 32 µg/mL | > 32 µg/mL | 8 µg/mL (≈ 22.8 µM) | 16 µg/mL (≈ 45.6 µM) | > 32 µg/mL | > 20 µg/mL | 8 µg/mL (≈ 22.8 µM) | 16 µg/mL (≈ 45.6 µM) | 16 µg/mL (≈ 45.6 µM) |  |  |  |  |  |  |  |  | 
CCCCCCCCNC(=O)c1cc2c(C)cc(C)cc2[nH]1 [Compound 33, N-octyl-4,6-dimethyl-1H-indole-2-carboxamide] | > 32 µg/mL | > 32 µg/mL | > 32 µg/mL | > 32 µg/mL | > 32 µg/mL | > 32 µg/mL | 2.5 to 5 µg/mL (≈ 8.32 to 16.6 µM) | > 32 µg/mL | > 32 µg/mL | > 32 µg/mL | > 20 µg/mL |  |  |  |  |  |  |  | 
CCCCCCCNC(=O)c1cc2ccccc2[nH]1 [Compound 17, N-heptyl-1H-indole-2-carboxamide] |  |  |  | > 32 µg/mL | > 32 µg/mL | > 32 µg/mL | > 25 µg/mL | > 32 µg/mL | > 32 µg/mL | > 32 µg/mL | > 10 µg/mL |  |  |  |  |  |  |  | 
O=C(NCc1cccc(Cl)c1)c1cc2ccccc2[nH]1 [Compound 19, N-(3-chlorobenzyl)-1H-indole-2-carboxamide] |  |  |  | > 32 µg/mL | > 32 µg/mL | > 32 µg/mL | > 20 µg/mL | > 32 µg/mL | > 32 µg/mL | > 32 µg/mL | > 5 µg/mL |  |  |  |  |  |  |  | 
O=C(NC1CCCCCC1)c1cc2ccccc2[nH]1 [Compound 11, N-cycloheptyl-1H-indole-2-carboxamide] |  |  |  | > 32 µg/mL | > 32 µg/mL | > 32 µg/mL | > 20 µg/mL | > 32 µg/mL | > 32 µg/mL | > 32 µg/mL | > 5 µg/mL |  |  |  |  |  |  |  | 
CCC12CC3CC(C1)CC(NC(=O)c1cc4ccccc4[nH]1)(C3)C2 [Compound 6, N-(3-ethyl-1-adamantyl)-1H-indole-2-carboxamide] | > 32 µg/mL | 1 to 2 µg/mL (≈ 3.1 to 6.2 µM) | > 32 µg/mL | > 32 µg/mL | > 32 µg/mL | > 32 µg/mL | > 20 µg/mL | > 32 µg/mL | > 32 µg/mL | > 32 µg/mL | 1.25 µg/mL (≈ 3.88 µM) |  |  |  |  |  |  |  | 
